How the values were obtained:
neuroblastoma cells = settings: in vitro, cited from earlier work
CT-2A tumour [1] = assay: Subcutaneous CT-2A tumour growth in C57BL/6 mice; format: in vivo, mouse; settings: NB-DNJ 2400 mg/kg body wt/day in diet, nine days
Experimental: (§1) CT-2A and EPEN tumours were grown subcutaneously in the flanks of six-week old syngeneic C57BL/6 mice. The treated mice were maintained on a powdered mouse chow diet (Prolab, Agway) that contained NB-DNJ (2400 mg/kg body weight/day). The control mice received only the powdered mouse chow. Tumours were enzymatically dissociated as described in Ecsedy et al, J. Lipid Res., 39: 2218-2227, 1998 and approximately 5×10^6 cells from each tumour were inoculated subcutaneously into the flanks of the host mice. For the CT-2A-bearing mice, drug treatment was started six days post-tumour cell inoculation and was continued for a total of nine days. For the EPEN-bearing mice, drug treatment was started eleven days post-tumour inoculation and was continued for a total of ten days. This was done because the EPEN tumour grows more slowly than the CT-2A tumour (Cotterchio et al. 1993. Mol. Chem. Neuropathol. 20:163-172). The method of Looney was used to determine tumour growth rates (volume increase/day) as previously described (Cotterchio et al. 1993. Mol. Chem. Neuropathol. 20:163-172). The results are shown in FIGS. 3A and 3B where values are expressed as means±SEM except for the control EPEN, which is the mean of two independent samples.

CT-2A tumour [2] = assay: Ganglioside neuraminic acid content of the CT-2A mouse brain tumour (Table 1); format: in vivo; settings: treated mice, mean of N=2
Experimental: (§2) CT-2A tumour tissue was minced and tissue pieces (about 1 mm^3) were implanted into the cerebral cortex of C57BL/6J mice using a trocar as described previously (Seyfried et al. 1987. Cancer Res. 47:3538-3542). The NB-DNJ diet as in Example 2. Control mice received only the powdered mouse chow. Tumours were excised from surrounding brain tissue, frozen, and lyophilized to remove water. Gangliosides were isolated and purified and content expressed as μg sialic acid/100 mg dry weight, as determined using the resorcinol reagent, as previously described (Seyfried et al. 1978. J. Neurochem. 31:21-27).
In addition, NB-DNJ reduced ganglioside content in the CT-2A mouse brain tumour grown subcutaneously (See FIG. 4B and Table 1 below).

EPEN tumour = assay: Subcutaneous EPEN tumour growth in C57BL/6 mice; format: in vivo, mouse; settings: NB-DNJ 2400 mg/kg body wt/day in diet, ten days
Experimental: as §1

EPEN cells = assay: Growth of cultured EPEN brain tumour cells (Coulter counter cell counts); format: cell-based; settings: NB-DNJ 200 μM
Experimental: (§3) Approximately 0.5×10^4 cells for CT-2A and 1×10^4 cells for EPEN were seeded in wells of a 24 well plate and cultured for 24 hours in DMEM supplemented with 10% FBS. The exact cellular origin of the CT-2A and EPEN tumours is not known, but Dr. Allan Yates, Chief of Neuropathology at Ohio State University classified the tumours as poorly differentiated anaplastic astrocytomas (see Seyfried et al Mol. Chem. Neuropathol. 17: 147-167, 1992).
(§4) Cells were cultured for a further 7 days in the same medium for control cells or in the presence of NB-DNJ (200 μM) for treated cells. Cells were counted on days 2, 4, 6 and 8 using a Coulter counter and the results are shown in FIGS. 2A and 2B where values are expressed as means±SEM (N=3).

CT-2A cells = assay: Growth of cultured CT-2A brain tumour cells (Coulter counter cell counts); format: cell-based; settings: NB-DNJ 200 μM
Experimental: as §3, §4

CT-2A tumour [3] = assay: Intra-cranial CT-2A tumour growth and ganglioside content in C57BL/6J mice; format: in vivo, mouse
Experimental: as §2

[4] = intra-cranial CT-2A tumours, NB-DNJ diet

SMILES | ganglioside shedding by neuroblastoma tumours (neuroblastoma cells; Li et al 1996) | neurite outgrowth by neuroblastoma cells (neuroblastoma cells; Uemura et al 1990) | reduction of tumour growth rate compared to untreated controls (CT-2A tumour [1]) | Ganglioside Neuraminic Acid Content, NeuAc (CT-2A tumour [2]) | Ganglioside Neuraminic Acid Content, NeuGc (CT-2A tumour [2]) | Ganglioside Neuraminic Acid Content, Total (CT-2A tumour [2]) | reduction of tumour growth rate compared to untreated controls (EPEN tumour) | percentage of dead cells vs control (trypan blue exclusion) (EPEN cells; EPEN culture) | growth inhibition of cultured EPEN tumour cells (EPEN cells; after 8 days) | percentage of dead cells vs control (trypan blue exclusion) (CT-2A cells; CT-2A culture) | growth inhibition of cultured CT-2A tumour cells (CT-2A cells; after 8 days) | intra-cranial growth of the CT-2A tumour (CT-2A tumour [3]; NB-DNJ dietary treatment) | blood brain barrier penetration (CT-2A tumour [3]; inferred from the effect on intra-cranial tumours, dietary treatment) | reduction in ganglioside concentration (CT-2A tumour [3]; [4]) | reduction in tumour dry weight (CT-2A tumour [3]; [4])
CCCCCCCCCC(=O)N[C@H](CN1CCOCC1)[C@H](O)c1ccccc1 [D-PDMP, D-threo-1-phenyl-2-decanoylamino-3-morpholino-1-propanol] | reduces ganglioside shedding | inhibit neurite outgrowth |  |  |  |  |  |  |  |  |  |  |  |  | 
CCCCN1C[C@H](O)[C@@H](O)[C@H](O)[C@H]1CO [NB-DNJ, N-butyldeoxynojirimycin] |  |  | 68% | 21.8 μg/100 mg dry wt | 5.6 μg/100 mg dry wt | 27.1 μg/100 mg dry wt | 76% | did not differ significantly | about 50% | did not differ significantly | about 50% | significantly reduced | can penetrate the blood brain barrier | 53% | 55%
